Measured values published in patent US20170037007A1, “SUBSTITUTED N-(2-(AMINO)-2OXOETHYL)BENZAMIDE INHIBITORS OF AUTOTAXIN AND THEIR PREPARATION AND USE IN THE TREATMENT OF LPA-DEPENDENT OR LPA-MEDIATED DISEASES” (X-Rx, Inc., priority 2014, published 2017).

biological target: T1, Autotaxin (Homo sapiens, UniProt Q13822); assay: Autotaxin LPC Cascade Assay; format: biochemical; conditions: 5 nM autotaxin, 100 μM LPC, choline oxidase/HRP/Ampliflu Red fluorescence readout; read-out: IC50 ATX activity values, IC50
T1 construct: purchased X-Chem
Protocol: Autotaxin LPC Cascade Assay
HA130 and Test Compounds:
Highest final concentration is […] for HA130 (Echelon, B-0701) and 30 μM for test compounds. Prepare a 1 mM stock of HA130 and a 3 mM stock of each compound in 100% DMSO. Perform a 1:3 serial dilution in DMSO (transfer 5 μl of compound to 10 μl of DMSO). Add 240 μl of buffer to generate a top working concentration of 40 µM (HA130) and 120 µM (test compound) in 4% DMSO.
Ampliflu Red—Prepare a stock of 5 mM from 100 mM in 100% DMSO. Further dilute to a working concentration of 400 μM in buffer (8% DMSO).
Together with compound this yields a 2% DMSO final concentration.
Choline Oxidase/HRP—0.8 U/ml CO and 8 U/ml HRP.
Add 5 μl of ATX and 5 μl of compound in a 384 well plate (Corning 3676). Incubate for 10 mins at RT. Add 5 μl of LPC and incubate for 1 hr on the plate shaker. Prepare the CO/HRP and AR prior to use. Add 2.5 μl of CO/HRP and follow with 2.5 μl AR. Note order of addition, CO/HRP mix before AR. Read fluorescence intensity (λex/λem: 530/590 nm) kinetically for 30 min at RT on the Tecan M1000.

Compound | IC50
CC(C)[C@@H](NC(=O)c1cc(C(F)(F)F)ccc1F)C(=O)N1CCC(Nc2ccc(C(=O)O)cc2)CC1 [Example 24, (R)-4-(1-(2-(2-Fluoro-5-(trifluoromethyl)benzamido)-3-methylbutanoyl)piperidin-4-ylamino)benzoic acid] | ≥ 10000 nM
CC(C)[C@@H](NC(=O)c1cc(-c2ccccc2)ccc1F)C(=O)N1CCC(C)(Nc2ccc(S(C)(=O)=O)cc2)CC1 [Example 32, (R)-4-Fluoro-N-(3-methyl-1-(4-methyl-4-(4-(methylsulfonyl)phenylamino)piperidin-1-yl)-1-oxobutan-2-yl)biphenyl-3-carboxamide] | 100 to 500 nM
CC(C)[C@@H](NC(=O)c1cc(C2CC2)ccc1F)C(=O)N1CCC(C)(Nc2ccc(S(C)(=O)=O)cc2)CC1 [Example 33, (R)-5-Cyclopropyl-2-fluoro-N-(3-methyl-1-(4-methyl-4-(4-(methylsulfonyl)phenylamino)piperidin-1-yl)-1-oxobutan-2-yl)benzamide] | 100 to 500 nM
CC(C)[C@@H](NC(=O)c1cccc(OC(F)(F)F)c1)C(=O)N1CCC(C)(Nc2ccccc2)CC1 [Example 7, (R)—N-(3-Methyl-1-(4-methyl-4-(phenylamino)piperidin-1-yl)-1-oxobutan-2-yl)-3-(trifluoromethoxy)benzamide] | 500 to 5000 nM
